These results are taken from US20150065345A1, “1,2,4 - TRIAZOLE DERIVATIVES AS HERBICIDALS” (SYNGENTA LIMITED, priority 2012, published 2015).

Common to all, as to type: in vivo
Common to all, as to conditions: 1000 g/h, evaluated after 13 days, five point scale

Assay [1] relates to Amaranthus retoflexus (AMARE). Nature of the assay: Glasshouse herbicide test, post-emergence. The procedure: (§1) Seeds of a variety of test species are sown in standard soil in pots Alopecurus myosuroides (ALOMY), Amaranthus retoflexus (AMARE), Setaria faberi (SETFA), Echinochloa crus-galli (ECHCG), Lolium perenne (LOLPE), Solanum nigrum (SOLNI), Stellaria media (STEME) and Digitaria sanguinalis (DIGSA). After cultivation for one day (pre-emergence) or after 8 days cultivation (post-emergence) under controlled conditions in a glasshouse (at 24/16° C., day/night; 14 hours light; 65% humidity), the plants are sprayed with an aqueous spray solution derived from the formulation of the technical active ingredient in acetone/water (50:50) solution containing 0.5% Tween 20 (polyoxyethelyene sorbitan monolaurate, CAS RN 9005-64-5). Compounds are applied at 1000 g/h. The test plants are then grown in a glasshouse under controlled conditions in a glasshouse (at 24/16° C., day/night; 14 hours light; 65% humidity) and watered twice daily. After 13 days for pre and post-emergence, the test is evaluated for the percentage damage caused to the plant. The biological activities are shown in the following table on a five point scale (5=80-100%; 4=60-79%; 3=40-59%; 2=20-39%; 1=0-19%).

Assay [2] deals with Lolium perenne (LOLPE). Nature of the assay: Glasshouse herbicide test, post-emergence. How it is done:
as §1

The subject of assay [3] is Stellaria media (STEME). Nature of the assay: Glasshouse herbicide test, post-emergence. How it is done:
as §1

The subject of assay [4] is Digitaria sanguinalis (DIGSA). Description: Glasshouse herbicide test, post-emergence. How it is done:
as §1

Assay [5] has as its system Amaranthus retoflexus (AMARE). Nature of the assay: Glasshouse herbicide test, pre-emergence. How it is done: as §1
The subject of assay [6] is Lolium perenne (LOLPE). Nature of the assay: Glasshouse herbicide test, pre-emergence. How it is done: as §1
Assay [7] has as its system Stellaria media (STEME). Nature of the assay: Glasshouse herbicide test, pre-emergence. The procedure:
as §1

In assay [8] the test system is Digitaria sanguinalis (DIGSA). Description: Glasshouse herbicide test, pre-emergence. The procedure: as §1
For assay [9], the system named is Solanum nigrum (SOLNI). Nature of the assay: Glasshouse herbicide test, post-emergence. The procedure: as §1
Assay [10] concerns Alopecurus myosuroides (ALOMY). Description: Glasshouse herbicide test, post-emergence. The procedure: as §1
For assay [11], the system named is Echinochloa crus-galli (ECHCG). Description: Glasshouse herbicide test, post-emergence. How it is done:
as §1

Assay [12] has as its system Setaria faberi (SETFA). Nature of the assay: Glasshouse herbicide test, post-emergence. The procedure: as §1
Assay [13] deals with IPOHE. Description: Glasshouse herbicide test, post-emergence. The procedure:
[The procedure below names another species; the source lists this species under the same test.] as §1

Assay [14] has as its system Solanum nigrum (SOLNI). Nature of the assay: Glasshouse herbicide test, pre-emergence. The procedure: as §1
In assay [15] the test system is Alopecurus myosuroides (ALOMY). Description: Glasshouse herbicide test, pre-emergence. How it is done: as §1
Assay [16] has as its system Echinochloa crus-galli (ECHCG). Nature of the assay: Glasshouse herbicide test, pre-emergence. The procedure:
as §1

Assay [17] relates to Setaria faberi (SETFA). Description: Glasshouse herbicide test, pre-emergence. The procedure:
as §1

Assay [18] deals with IPOHE. Nature of the assay: Glasshouse herbicide test, pre-emergence. How it is done:
[The procedure below names another species; the source lists this species under the same test.] as §1

Consider `Cn1cnnc1NC(=O)c1ccc(S(C)(=O)=O)c(COCC(F)(F)F)c1Cl` [Compound 1.001], for which the “percentage damage caused to the plant, AMARE, POST Application” value in assay [1] is reported as 5 (5=80-100%). Besides, in the assay on Lolium perenne (LOLPE) [2], the “percentage damage caused to the plant, LOLPE, POST Application” value is 1 (1=0-19%). Moreover, the “percentage damage caused to the plant, STEME, POST Application” value in the assay with Stellaria media (STEME) [3] is 5 (5=80-100%). Moreover, in assay [4], the “percentage damage caused to the plant, DIGSA, POST Application” value was 5 (5=80-100%). The “percentage damage caused to the plant, AMARE, PRE Application” value in assay [5] was 3 (3=40-59%). Also, in the assay on Lolium perenne (LOLPE) [6], the “percentage damage caused to the plant, LOLPE, PRE Application” value is on record as 1 (1=0-19%). For the same molecule, in the assay on Stellaria media (STEME) [7], the “percentage damage caused to the plant, STEME, PRE Application” value is recorded as 1 (1=0-19%). Moreover, in [8], the “percentage damage caused to the plant, DIGSA, PRE Application” value was 1 (1=0-19%).

On to `Cc1ccc(C(F)(F)F)c(C(=O)Nc2nncn2C)c1` [Compound 2.006], for which the “percentage damage caused to the plant, AMARE, POST Application” value in assay [1] (second table) is on record as 2 (2=20-39%). For the same molecule, in the assay with Solanum nigrum (SOLNI) [9], the “percentage damage caused to the plant, SOLNI, POST Application” value was 4 (4=60-79%). The “percentage damage caused to the plant, ALOMY, POST Application” value in [10] is 1 (1=0-19%). In assay [11], the “percentage damage caused to the plant, ECHCG, POST Application” value is 1 (1=0-19%). Also, the “percentage damage caused to the plant, SETFA, POST Application” value with Setaria faberi (SETFA) [12] is on record as 1 (1=0-19%). Moreover, the “percentage damage caused to the plant, IPOHE, POST Application” value in the assay with IPOHE [13] was 2 (2=20-39%). The “percentage damage caused to the plant, AMARE, PRE Application” value in [5] (second table) is 2 (2=20-39%). For the same molecule, the “percentage damage caused to the plant, SOLNI, PRE Application” value in the assay with Solanum nigrum (SOLNI) [14] is 3 (3=40-59%). The “percentage damage caused to the plant, ALOMY, PRE Application” value in [15] is 1 (1=0-19%). For the same molecule, the “percentage damage caused to the plant, ECHCG, PRE Application” value in [16] is 1 (1=0-19%). The “percentage damage caused to the plant, SETFA, PRE Application” value with Setaria faberi (SETFA) [17] is 1 (1=0-19%). Besides, the “percentage damage caused to the plant, IPOHE, PRE Application” value in the assay with IPOHE [18] is recorded as 3 (3=40-59%).
